In patent publication US20240189266A1, “Lactoyl Amino Acids for the Treatment of Metabolic Disease” (The Board of Trustees of the Leland Stanford Junior …, priority 2021, published 2024):

Experiments:
[1] = Plasma Lac-Phe level after intraperitoneal injection; format: in vivo; conditions: C57BL/6J DIO, mouse, 50 mg/kg IP, DIO mice, mean±SEM, read-out: plasma levels 30 min post injection
Method: General animal information. Animal experiments were performed according to procedure approved by the Stanford University Administrative Panel on Laboratory Animal Care (APLAC). Mice were maintained in 12-hr light-dark cycles at 22° C. and ˜50% relative humidity and fed a standard irradiated rodent chow diet. Where indicated, high-fat diet (D12492, Research Diets 60% kcal from fat) was used. C57BL/6J (stock no. 000664) and C57BL/6J DIO mice (stock no. 380050) were purchased from Jackson Laboratory. C57BL/6NCrl (stock no. 027) mice were purchased from Charles River Laboratory. Whole body CNDP2 knockout mice (catalog number, C57BL/6NCrl-Cndp2em1(IMPC)Mbp/Mmucd, RRID: MMRRC_043492-UCD) were obtained from the Mutant Mouse Regional Resource Center, a NCRR-NIH funded strain repository. For in vivo injection of mice with compounds including Lac-Phe, lactate, and phenylalanine, compounds were dissolved in 18:1:1 (by volume) of saline/Kolliphor EL (Sigma Aldrich)/DMSO. Compounds were administered to mice daily via intraperitoneal injections at 5 μl/g body weight at the indicated doses. For all injection experiments, mice were mock injected with the vehicle for 3-5 days until body weights have stabilized. For glucose tolerance tests, mice were fasted for 6 hours then injected with glucose at 10 μl/g body weight. A dose of 1 g/kg was used for the GTT of vehicle and Lac-Phe treated obese mice. […]

[2] = Acute Lac-Phe administration to DIO mice in metabolic chambers; format: in vivo; conditions: single 50 mg/kg IP
Method: (§1) General animal information. Animal experiments were performed according to procedure approved by the Stanford University Administrative Panel on Laboratory Animal Care (APLAC). Mice were maintained in 12-hr light-dark cycles at 22° C. and ˜50% relative humidity and fed a standard irradiated rodent chow diet. Where indicated, high-fat diet (D12492, Research Diets 60% kcal from fat) was used. C57BL/6J (stock no. 000664) and C57BL/6J DIO mice (stock no. 380050) were purchased from Jackson Laboratory. C57BL/6NCrl (stock no. 027) mice were purchased from Charles River Laboratory. Whole body CNDP2 knockout mice (catalog number, C57BL/6NCrl-Cndp2em1(IMPC)Mbp/Mmucd, RRID: MMRRC_043492-UCD) were obtained from the Mutant Mouse Regional Resource Center, a NCRR-NIH funded strain repository. For in vivo injection of mice with compounds including Lac-Phe, lactate, and phenylalanine, compounds were dissolved in 18:1:1 (by volume) of saline/Kolliphor EL (Sigma Aldrich)/DMSO. Compounds were administered to mice daily via intraperitoneal injections at 5 μl/g body weight at the indicated doses. For all injection experiments, mice were mock injected with the vehicle for 3-5 days until body weights have stabilized. For glucose tolerance tests, mice were fasted for 6 hours then injected with glucose at 10 μl/g body weight. A dose of 1 g/kg was used for the GTT of vehicle and Lac-Phe treated obese mice.

[3] = Chronic 10-day Lac-Phe administration to DIO mice (food intake, body weight, GTT, tissue weights); format: in vivo
Method: as §1

[4] = 7-day comparison of Lac-Phe with lactate and phenylalanine in DIO mice; format: in vivo; conditions: 50 mg/kg IP daily, 13-week male DIO mice
Method: as §1

[5] = 9-day Lac-Phe treatment of 18 week DIO mice (FIG. 17); format: in vivo; conditions: 50 mg/kg/day IP
Method: as §1

[6] = system: AgRP neurons in the arcuate nucleus of hypothalamus (ARH); assay: Whole-cell patch-clamp slice electrophysiology, AgRP neurons; format: cell-based, mice
Method: (§2) Slice electrophysiology studies. Several genetic mouse strains were used for electrophysiological recordings from identified neural populations. These included AgRP-IRES-Cre/Rosa26-LSL-tdTOMATO mice for recordings from AgRP neurons in the arcuate nucleus of hypothalamus (ARH); POMC-CreER/Rosa26-LSL-tdTOMATO mice (with 200 mg/kg tamoxifen induction at 8-12 weeks) were used for recordings from POMC neurons in the ARH; SF1-Cre/Rosa26-LSL-tdTOMATO mice were used for recordings from SF1 neurons in the ventromedial hypothalamus (VMH); TPH2-CreER/Rosa26-LSL-tdTOMATO mice (with 200 mg/kg tamoxifen induction at 8-12 weeks) were used for recording from 5-HT neurons in the dorsal raphe nucleus (DRN). Mice (males and females, 8-16 weeks old) were anesthetized with isoflurane and transcardially perfused with a modified ice-cold sucrose-based cutting solution (pH 7.4; containing 10 mM NaCl, 25 mM NaHCO3, 195 mM sucrose, 5 mM glucose, 2.5 mM KCl, 1.25 mM NaH2PO4, 2 mM sodium pyruvate, 0.5 mM CaCl2, and 7 mM MgCl2, bubbled continuously with 95% O2 and 5% CO2). The mice were then decapitated, and the entire brain was removed and immediately submerged in the cutting solution. Coronal slices (220 μm) were cut with a Microm HM 650V vibratome (Thermo Scientific). Brain slices containing the desired region (ARH, VMH, or DRN) were collected for each corresponding mouse, and recordings were made at levels throughout this brain region. The slices were recovered for ˜30 minutes at 32° C. and then maintained at room temperature for another 1 hour in oxygenated (95% O2 and 5% CO2) artificial cerebrospinal fluid (ACSF, pH 7.4; containing 126 mM NaCl, 2.5 mM KCl, 2.4 mM CaCl2, 1.2 mM NaH2PO4, 1.2 mM MgCl2, 11.1 mM glucose, and 21.4 mM NaHCO3) before recording.
(§3) Slices were transferred to the recording chamber at 32° C. and perfused continuously with oxygenated ACSF at a flow rate of 1.8-2.0 ml/min. […] Recordings were made using a MultiClamp 700B amplifier (Axon Instruments), sampled using Digidata 1440A, and analyzed offline with pClamp 10.3 software (Axon Instruments). Series resistance was monitored during the recording, and the values were generally <10 MO and were not compensated. The liquid junction potential was monitored and corrected. […] To ensure each recorded neuron receive same amount of Lac-Phe, the neurons located on the surface of the slice were selected to record and the puff pipette was always put at a 100 μm horizontal and 100 μm vertical distance from the recorded neurons. […] Each neuron was recorded for at least 1 minute at baseline and only the neurons with stable baseline were used to test the Lac-Phe treatment. […]

[7] = system: POMC neurons in the ARH; assay: Whole-cell patch-clamp slice electrophysiology, POMC neurons; format: cell-based, mice
Method: as §2, with “Coronal slices (220 μm) were cut with a Microm HM 650V vibratome (Thermo Scientific). Brain slices containing the desired region (ARH, VMH, or DRN) were collected for each corresponding mouse, and recordings were made at levels throughout this brain region. The slices were recovered for ˜30 minutes at 32° C. and then maintained at room temperature for another 1 hour in oxygenated (95% O2 and 5% CO2) artificial cerebrospinal fluid (ACSF, pH 7.4; containing 126 mM NaCl, 2.5 mM KCl, 2.4 mM CaCl2, 1.2 mM NaH2PO4, 1.2 mM MgCl2, 11.1 mM glucose, and 21.4 mM NaHCO3) before recording.” left out
as §3

[8] = system: serotonin (5-HT)-positive neurons in the dorsal raphe nuclei (DRN); assay: Whole-cell patch-clamp slice electrophysiology, 5-HT neurons; format: cell-based, mice; conditions: 50 μM
Method: (§4) Slice electrophysiology studies. Several genetic mouse strains were used for electrophysiological recordings from identified neural populations. These included AgRP-IRES-Cre/Rosa26-LSL-tdTOMATO mice for recordings from AgRP neurons in the arcuate nucleus of hypothalamus (ARH); POMC-CreER/Rosa26-LSL-tdTOMATO mice (with 200 mg/kg tamoxifen induction at 8-12 weeks) were used for recordings from POMC neurons in the ARH; SF1-Cre/Rosa26-LSL-tdTOMATO mice were used for recordings from SF1 neurons in the ventromedial hypothalamus (VMH); TPH2-CreER/Rosa26-LSL-tdTOMATO mice (with 200 mg/kg tamoxifen induction at 8-12 weeks) were used for recording from 5-HT neurons in the dorsal raphe nucleus (DRN). […]
(§5) Slices were transferred to the recording chamber at 32° C. and perfused continuously with oxygenated ACSF at a flow rate of 1.8-2.0 ml/min. […] Recordings were made using a MultiClamp 700B amplifier (Axon Instruments), sampled using Digidata 1440A, and analyzed offline with pClamp 10.3 software (Axon Instruments). Series resistance was monitored during the recording, and the values were generally <10 MO and were not compensated. The liquid junction potential was monitored and corrected. […] Each neuron was recorded for at least 1 minute at baseline and only the neurons with stable baseline were used to test the Lac-Phe treatment. […]

[9] = system: SF1-positive neurons of the ventromedial hypothalamic nucleus (VMH); assay: Whole-cell patch-clamp slice electrophysiology, SF1 neurons; format: cell-based, mice; conditions: 50 μM
Method: as §4, §5

[10] = system: RAW264.7 cells; assay: In vitro Lac-Phe production assay with added lactate, RAW264.7; format: cell-based, murine; conditions: lactate 25 mM in conditioned media
Method: Cell line cultures. All cell lines were obtained from ATCC and grown at 37° C. with 5% CO2. RAW 264.7, HEK293T, HEK293A, C2C12, F442A, 3T3-L1, Caco2, and SW48 were grown in Dulbecco's modified Eagle's medium (DMEM) with 10% fetal bovine serum (FBS) and penicillin/streptomycin (pen/strep). AML-12 cells were grown in DMEM with 10% FBS and pen/strep supplemented with Insulin-Transferrin-Selenium. T84 cells were grown in Dulbecco's modified Eagle's medium/nutrient mixture F-12 (DMEM/F-12) with 5% FBS and pen/strep.
In vitro Lac-Phe Production assay. Cells were plated in 12-well plates at 70-80% confluence. The next day, cells were washed two times with PBS and incubated in 0.5 ml serum free media. After overnight incubation, 400 μl of media was removed and 20 μl of 1 M hydrochloride added to acidify the media and protonate Lac-Phe. 400 μl of ethyl acetate was added into each sample and vortexed for 30 seconds to extract Lac-Phe into the organic layer. 300 μl from the top layer was transferred to a new Eppendorf tube and dried down under a stream of nitrogen. The residue was re-suspended in 100 ul of an 80:20 mixture of acetonitrile/water. Cells were kept on ice to harvest the lysate. 150 μl of PBS was added into each well and the cells scraped into an Eppendorf tube. This step was repeated again to ensure all cells have been harvested. […]

[11] = system: primary peritoneal macrophages; assay: In vitro Lac-Phe production assay with added lactate, primary macrophages; format: cell-based, mice; conditions: lactate 25 mM in conditioned media
Method: Primary peritoneal macrophage isolation. Mice were injected with 2 ml of 3% brewer thioglycollate medium (Fisher, B111716) and the macrophage elicitation allowed to proceed for 3 days. For the macrophage isolation, mice were euthanized with CO2 and the abdominal skin peeled back to expose the peritoneal wall. 10 ml of ice-cold calcium and magnesium free DPBS was injected into the peritoneal cavity, taking care not to puncture the organs. The mice were gently massaged and the fluid aspirated from the peritoneum using the same syringe and needle. The fluid was dispensed into a 50 ml falcon tube on ice. Cells were then centrifuged at 4° C. for 10 minutes at 400×g. The supernatant was discarded and the cells re-suspended in cold DMEM/F-12 containing 10% FBS and pen/strep. Cells were allowed to adhere in the incubator for at least 2 hours then washed three times in warm PBS to remove non-adherent cells. Fresh media was added to the cells and experiments performed within 1-2 days after the isolation.
In vitro Lac-Phe Production assay. Cells were plated in 12-well plates at 70-80% confluence. The next day, cells were washed two times with PBS and incubated in 0.5 ml serum free media. After overnight incubation, 400 μl of media was removed and 20 μl of 1 M hydrochloride added to acidify the media and protonate Lac-Phe. […]

[12] = 50 mg/kg/day IP, 10 days, DIO mice

In the case of `C[C@H](O)C(=O)N[C@@H](Cc1ccccc1)C(=O)O` [Lac-Phe, N-lactoyl-phenylalanine], the concentration at 30 min [1] is reported as 3.8 µM, the “suppression of food intake compared to vehicle-treated mice” value ([2]; 12 h post-administration) is reported as 52% and the “carbon dioxide production (VCO2)” value ([2]; 12 hr) is reported as “did not alter”. The “oxygen consumption (VO2)” value ([2]; 12 hr) was “did not alter”, the “respiratory exchange ratio (RER)” value ([2]; 12 hr) was “did not alter” and the “food intake over 12 h post-administration” value ([2]; mean±SEM (vehicle 6.4±0.6)) was 3.0±1.0 kcal/mouse. The ambulatory activity ([2]; vs vehicle) was “not different between groups”, the “brown fat (BAT) mass vs vehicle” value [3, 12] was −41% and the “change in total body weight” value [3, 12] was −7%. For the same compound, the “epididymal fat (eWAT) mass vs vehicle” value [3, 12] was −20%, the “subcutaneous inguinal fat (iWAT) mass vs vehicle” value [3, 12] was −41% and the “total lean mass, estimated by weights of other organs” value [3, 12] was “unaffected”. For the same compound, the “reduction in body weight” value ([3]; 50 mg/kg/day IP, 10 days, DIO mice, mean±SEM) was -2.8 ± 1.1 g, the “food intake, chronic treatment” value ([3]; 50 mg/kg/day IP, 10 days, DIO mice, mean±SEM (vehicle 2.9±0.1)) was 2.1±0.1 g/mouse/day and the glucose tolerance test ([3]; day 10, 1 g/kg glucose, 6 h fast, vs vehicle) was “improved glucose clearance”. The “body weight vs control” value [4] was “suppressed”, the “food intake vs control” value [4] was “suppressed” and the “glucose homeostasis (glucose tolerance test)” value ([5]; 1 g/kg glucose, 6 h fast) was “improves glucose homeostasis”. The body weight ([5]; 9-day, 18 week male DIO mice) was “suppresses”, the “appetite (cumulative food intake)” value ([5]; 18 week male DIO mice) was “suppresses” and the “effect on AgRP neurons (firing frequency, resting membrane potential)” value ([6]; 50 μM) was “rapidly inhibited”. For the same compound, the “hyperpolarization of AgRP neurons in presence of TTX, DNQX, D-AP5, bicuculline” value ([6]; 50 μM with inhibitor cocktail) was “persisted”, the “AgRP neurons hyperpolarized (response ratio)” value ([6]; all concentrations tested, baseline or inhibitor-treated) was > 70% and the “concentration showing inhibitory activity on AgRP neurons” value ([6]; dose response, lowest active concentration) was ≥ 1 µM. The “effect on POMC neurons (firing frequency, depolarization)” value ([7]; 50 μM) was “rapidly activate”, the “depolarization of POMC neurons in presence of inhibitor cocktail” value ([7]; 50 μM with inhibitor cocktail) was “persisted” and the “concentration required to activate POMC neurons” value ([7]; dose response) was “at least 20 μM”. For the same compound, the “excitability of 5-HT-positive neurons” value [8] was “No effect” and the “excitability of SF1-positive neurons” value [9] was “No effect”.

In the case of `C[C@H](O)C(=O)[O-].[Na+]` [lactate, sodium L-lactate], the “body weight vs control” value [4] is reported as “identical to vehicle treated mice”, the “food intake vs control” value [4] is reported as “identical to vehicle treated mice” and the “increase of extracellular levels of Lac-Phe” value [10] is reported as “+85%”. The “increase of extracellular levels of Lac-Phe” value [11] was “+200%”.

For `N[C@@H](Cc1ccccc1)C(=O)O` [phenylalanine, L-Phenylalnine], the “body weight vs control” value [4] was “identical to vehicle treated mice” and the “food intake vs control” value [4] was “identical to vehicle treated mice”.
